Laboratory results taken from article PMC8903829 (eLife, 2022).
Where “and” joins values, the source holds several entries; their conditions need not be identical. Equal values may be shown once. Entries after “also recorded” stand apart in the source; their conditions may differ.

How the values were obtained:
hNaV1.6 N984K = target: T1, hNaV1.6 N984K (Homo sapiens, UniProt Q9UQD0, N984K); assay: Automated patch-clamp, patient-identified variant in Expi293F cells; format: cell-based; parameters: h1.6-N984K 145756, Mean: scale not given here
T1 construct: expression vector containing the full-length cDNA coding for specific human and mouse sodium channel α-subunit; expressed in transfected cells; host or cells: Expi293F (transient, tetracycline-induced, pcDNA4/TO)
T1 sequence (Q9UQD0 whole entry N984K): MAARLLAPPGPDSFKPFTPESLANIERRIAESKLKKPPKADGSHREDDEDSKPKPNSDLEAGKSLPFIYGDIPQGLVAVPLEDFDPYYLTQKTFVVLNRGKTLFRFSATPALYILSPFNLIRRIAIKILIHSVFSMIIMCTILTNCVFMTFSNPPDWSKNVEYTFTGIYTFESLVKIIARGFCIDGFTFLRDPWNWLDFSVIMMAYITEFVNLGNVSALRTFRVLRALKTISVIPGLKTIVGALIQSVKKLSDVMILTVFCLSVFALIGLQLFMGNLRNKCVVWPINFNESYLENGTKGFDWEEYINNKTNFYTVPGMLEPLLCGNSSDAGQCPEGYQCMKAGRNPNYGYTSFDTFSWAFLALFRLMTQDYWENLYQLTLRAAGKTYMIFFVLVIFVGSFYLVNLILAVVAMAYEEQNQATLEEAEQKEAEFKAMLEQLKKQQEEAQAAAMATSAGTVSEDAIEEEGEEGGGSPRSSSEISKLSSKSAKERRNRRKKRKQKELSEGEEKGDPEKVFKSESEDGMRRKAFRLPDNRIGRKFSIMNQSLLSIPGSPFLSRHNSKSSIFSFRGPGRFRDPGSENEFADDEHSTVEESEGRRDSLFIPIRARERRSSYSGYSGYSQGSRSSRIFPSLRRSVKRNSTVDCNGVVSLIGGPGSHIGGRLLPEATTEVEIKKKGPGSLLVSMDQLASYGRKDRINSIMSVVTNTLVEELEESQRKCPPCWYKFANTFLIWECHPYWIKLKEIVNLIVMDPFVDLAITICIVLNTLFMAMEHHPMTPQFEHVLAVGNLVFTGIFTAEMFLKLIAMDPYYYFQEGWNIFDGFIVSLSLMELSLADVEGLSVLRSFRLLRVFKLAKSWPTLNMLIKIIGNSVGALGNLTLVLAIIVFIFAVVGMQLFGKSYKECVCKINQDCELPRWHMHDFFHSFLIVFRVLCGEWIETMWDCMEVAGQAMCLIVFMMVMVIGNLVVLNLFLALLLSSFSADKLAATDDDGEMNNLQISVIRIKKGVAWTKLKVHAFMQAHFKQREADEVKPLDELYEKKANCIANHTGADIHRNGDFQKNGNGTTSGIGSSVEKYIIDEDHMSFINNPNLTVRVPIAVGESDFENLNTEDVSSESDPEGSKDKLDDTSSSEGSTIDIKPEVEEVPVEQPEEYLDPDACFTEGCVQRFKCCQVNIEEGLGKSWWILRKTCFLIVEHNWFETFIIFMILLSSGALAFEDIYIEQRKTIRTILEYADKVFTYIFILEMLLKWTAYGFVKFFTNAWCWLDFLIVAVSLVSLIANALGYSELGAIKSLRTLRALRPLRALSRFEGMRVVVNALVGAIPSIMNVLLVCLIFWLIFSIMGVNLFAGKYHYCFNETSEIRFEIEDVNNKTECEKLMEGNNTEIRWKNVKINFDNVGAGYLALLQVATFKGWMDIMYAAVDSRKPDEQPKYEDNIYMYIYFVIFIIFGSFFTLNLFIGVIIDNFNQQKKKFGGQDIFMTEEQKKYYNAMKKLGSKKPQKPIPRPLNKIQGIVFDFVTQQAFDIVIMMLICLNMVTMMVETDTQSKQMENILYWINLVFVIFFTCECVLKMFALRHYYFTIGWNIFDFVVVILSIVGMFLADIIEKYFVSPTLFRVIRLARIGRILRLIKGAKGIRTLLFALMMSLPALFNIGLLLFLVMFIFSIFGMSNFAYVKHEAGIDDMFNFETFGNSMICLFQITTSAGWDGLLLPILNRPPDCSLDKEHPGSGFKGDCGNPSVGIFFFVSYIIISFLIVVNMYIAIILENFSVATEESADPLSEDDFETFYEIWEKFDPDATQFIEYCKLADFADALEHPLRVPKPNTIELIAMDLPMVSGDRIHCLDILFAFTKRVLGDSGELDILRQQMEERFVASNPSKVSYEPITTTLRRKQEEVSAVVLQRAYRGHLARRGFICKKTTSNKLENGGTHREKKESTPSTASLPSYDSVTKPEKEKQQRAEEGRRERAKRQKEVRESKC
Procedure: (§1) For studies of mutant channels, cDNA plasmids in pcDNA4/TO Mammalian Expression Vector were transiently transfected into Expi293F cells stably expressing human FHF2b and human SCN1B subunit (polyclonal) background using ExpiFectamine 293 Transfection Kits (Gibco,Thermo Fisher Scientific CAT #: A14524). Induction was achieved using Tetracycline (Sigma Aldrich). Transfected cells were used in automated patch-clamp experiments 24 hours postinduction.
(§2) Inorm(CPD)=(ICPD−Icontrol)/(ITTX−Icontrol).

hNaV1.6 N1466K = target: T2, hNaV1.6 N1466K (Homo sapiens, UniProt Q9UQD0, N1466K); assay: as above; format: cell-based; parameters: h1.6 -N1466K 145756, Mean: scale not given here
T2 construct: expression vector containing the full-length cDNA coding for specific human and mouse sodium channel α-subunit; expressed in transfected cells; host or cells: Expi293F (transient, tetracycline-induced, pcDNA4/TO)
T2 sequence (Q9UQD0 whole entry N1466K): as the sequence (Q9UQD0 whole entry N984K) above, with K984N, N1466K counted along it
Procedure: as §1, §2

hNaV1.4 = hNaV1.4 (Homo sapiens, UniProt P35499); assay: Qube 384 automated patch-clamp, inactivated-state inhibition
mNaV1.6 = target: T3, mNaV1.6 (Mus musculus, UniProt Q9WTU3); assay: as above; format: cell-based
T3 construct: expression vector containing the full-length cDNA coding for specific human and mouse sodium channel α-subunit; expressed in transfected cells
T3 sequence (Q9WTU3 whole entry): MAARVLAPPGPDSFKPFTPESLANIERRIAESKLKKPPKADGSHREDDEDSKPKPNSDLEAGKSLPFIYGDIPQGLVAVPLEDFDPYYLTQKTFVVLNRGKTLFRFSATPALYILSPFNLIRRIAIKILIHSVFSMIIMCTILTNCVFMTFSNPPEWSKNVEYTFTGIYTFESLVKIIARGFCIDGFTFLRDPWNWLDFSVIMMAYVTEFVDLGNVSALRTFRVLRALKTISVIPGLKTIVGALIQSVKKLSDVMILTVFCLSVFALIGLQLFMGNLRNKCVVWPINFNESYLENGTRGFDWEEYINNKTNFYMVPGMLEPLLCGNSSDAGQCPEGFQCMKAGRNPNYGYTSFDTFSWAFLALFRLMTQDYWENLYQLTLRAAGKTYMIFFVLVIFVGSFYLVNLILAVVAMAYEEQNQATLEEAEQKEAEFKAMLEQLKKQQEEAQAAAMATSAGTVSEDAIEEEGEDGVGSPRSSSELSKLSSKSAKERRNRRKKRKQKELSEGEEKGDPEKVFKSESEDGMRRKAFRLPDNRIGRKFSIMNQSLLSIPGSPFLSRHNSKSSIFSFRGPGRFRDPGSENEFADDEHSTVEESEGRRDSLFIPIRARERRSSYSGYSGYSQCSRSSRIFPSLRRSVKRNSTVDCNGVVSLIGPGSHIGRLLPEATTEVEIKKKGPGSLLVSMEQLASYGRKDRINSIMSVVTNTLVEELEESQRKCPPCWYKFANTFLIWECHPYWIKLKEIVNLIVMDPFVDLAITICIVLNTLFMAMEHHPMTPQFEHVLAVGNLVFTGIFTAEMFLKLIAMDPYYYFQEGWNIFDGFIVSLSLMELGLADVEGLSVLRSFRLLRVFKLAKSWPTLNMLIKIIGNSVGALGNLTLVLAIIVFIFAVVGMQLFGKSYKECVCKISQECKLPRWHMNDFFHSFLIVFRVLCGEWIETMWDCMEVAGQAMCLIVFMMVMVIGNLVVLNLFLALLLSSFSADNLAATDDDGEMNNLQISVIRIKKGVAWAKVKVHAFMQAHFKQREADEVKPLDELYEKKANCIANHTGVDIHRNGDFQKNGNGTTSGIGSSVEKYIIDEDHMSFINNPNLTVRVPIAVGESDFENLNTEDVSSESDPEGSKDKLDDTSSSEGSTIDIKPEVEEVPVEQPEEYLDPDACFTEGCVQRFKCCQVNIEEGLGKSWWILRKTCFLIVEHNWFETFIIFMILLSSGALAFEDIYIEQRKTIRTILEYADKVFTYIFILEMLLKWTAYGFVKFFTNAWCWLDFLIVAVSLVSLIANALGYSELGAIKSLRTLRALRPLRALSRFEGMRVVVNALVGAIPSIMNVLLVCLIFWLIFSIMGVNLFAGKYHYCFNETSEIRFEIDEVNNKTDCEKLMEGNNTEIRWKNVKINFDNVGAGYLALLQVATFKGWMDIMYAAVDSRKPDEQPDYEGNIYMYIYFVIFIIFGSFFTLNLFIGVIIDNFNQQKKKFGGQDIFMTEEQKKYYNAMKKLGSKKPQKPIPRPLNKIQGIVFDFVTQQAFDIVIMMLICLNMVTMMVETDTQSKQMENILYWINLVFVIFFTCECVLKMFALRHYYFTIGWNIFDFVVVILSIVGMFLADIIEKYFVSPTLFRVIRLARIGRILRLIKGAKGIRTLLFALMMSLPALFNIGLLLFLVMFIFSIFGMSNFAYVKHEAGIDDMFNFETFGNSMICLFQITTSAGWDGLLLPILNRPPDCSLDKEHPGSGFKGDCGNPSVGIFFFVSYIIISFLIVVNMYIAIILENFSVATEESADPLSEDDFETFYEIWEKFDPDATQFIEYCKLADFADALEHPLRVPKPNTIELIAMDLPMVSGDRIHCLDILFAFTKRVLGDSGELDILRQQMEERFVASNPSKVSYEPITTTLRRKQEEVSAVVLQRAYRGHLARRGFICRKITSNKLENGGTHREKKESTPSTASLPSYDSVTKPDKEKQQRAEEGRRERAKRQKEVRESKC
T3 sequence (Q92913 1-192 isoform Q92913-2 partner): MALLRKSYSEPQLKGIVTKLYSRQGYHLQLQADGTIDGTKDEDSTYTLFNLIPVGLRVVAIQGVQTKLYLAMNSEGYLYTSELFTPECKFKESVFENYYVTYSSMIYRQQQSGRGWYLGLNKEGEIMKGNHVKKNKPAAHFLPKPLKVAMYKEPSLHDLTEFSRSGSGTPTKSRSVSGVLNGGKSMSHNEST

[1] = parameters: method as in Beatch et al., 2020; settings: humans; ref Beatch et al., 2020; cited from earlier work
[2] = tested on: glutamatergic pyramidal neurons from mouse layer five neocortex; assay: Current-clamp recording in brain slices, action-potential firing; format: cell-based; settings: for WT Cortical pyramidal neurons APs/1s: 0.25 μM, individual neurons; for Cumulative number of action potentials fired by each cell on increasing current injections: 250 nM, WT cortical pyramidal neurons
Procedure: Parasagittal cortical brain slices were prepared from> P21 mice using standard procedures (adapted from Tai et al., PNAS 2014). Briefly, the mouse was deeply anaesthetized with isoflurane and decapitated. The brain was removed and placed into chilled artificial cerebrospinal fluid (aCSF) solution containing (in mM): 125 NaCl, 25 NaHCO3, 2.5 KCl, 1.25 NaH2PO4, 2 CaCl2, 2 MgCl2, 10 d-glucose, pH 7.3, osmolarity adjusted to ~306 mOsm using sucrose. All solutions were saturated with 95% O2 and 5% CO2 constantly perfused with 95% O2/5% CO2. Slices with a thickness of 400 µm were prepared using a vibratome (Ted Pella, Inc). Following sectioning, the slices were placed in a holding chamber and incubated in a water bath at 34 °C for 15 min. The brain slices were removed from the water bath and held at room temperature for 60 min prior to recording.
All experiments involving rodent subjects were performed in accordance with the guidelines of the Canadian Council on Animal Care (CCAC). Following a 60-min incubation at room temperature, a brain slice was selected and placed on the stage of an upright microscope (SliceScope Pro 2000, Scientifica). The slice was constantly perfused with room temperature aCSF, containing 0.1% DMSO as a vehicle control, and oxygenated with 95% O2/5% CO2.The slice was visualized using brightfield microscopy, and a healthy neuron was selected from neocortical layer 5. […] Stimulation was applied in current-clamp mode, and consisted of a series of 1000ms square pulses, beginning at –20 pA and increasing by +20 pA increments (3000ms between pulses).
The slice was incubated in circulating compound for 10 min before repeating the series of square pulse stimulations. Working stock solutions were prepared in DMSO at a concentration of 20 mM.
All data analysis was done offline using ClampFit 10.7 (Molecular Devices). Data are presented as a mean ± SEM. For each sweep, the number of evoked APs was counted, and plotted as a function of current injection (beginning with –20 pA). […] Statistical significance was assessed using paired, two-way, student’s t-test applied at each current injection level with significance considered p < 0.05.

hNaV1.5 = target: T4, hNaV1.5 (Homo sapiens, UniProt Q14524); assay: Qube 384 automated patch-clamp, inactivated-state inhibition; format: cell-based
T4 construct: expression vector containing the full-length cDNA coding for specific human and mouse sodium channel α-subunit; expressed in transfected cells

In the case of Cc1cc(S(=O)(=O)Nc2cscn2)c(F)cc1N(C)[C@H]1CCN(Cc2ccccc2)C1 [NBI-921352], the IC50 (hNaV1.6 N984K) is reported as 32 nM, the “h1.6-N984K 145756, Mean” value (hNaV1.6 N984K; -5 LogM) is reported as 0.94 and the “h1.6-N984K 145756, Mean” value (hNaV1.6 N984K; -5.47716 LogM) is reported as 0.92. The “h1.6-N984K 145756, Mean” value (hNaV1.6 N984K; -5.95429 LogM) was 0.89, the “h1.6-N984K 145756, Mean” value (hNaV1.6 N984K; -6.4318 LogM) was 0.81 and the “h1.6-N984K 145756, Mean” value (hNaV1.6 N984K; -6.91009 LogM) was 0.66. The “h1.6-N984K 145756, Mean” value (hNaV1.6 N984K; -7.38722 LogM) was 0.56, the “h1.6-N984K 145756, Mean” value (hNaV1.6 N984K; -7.85387 LogM) was 0.33 and the “h1.6-N984K 145756, Mean” value (hNaV1.6 N984K; -8.33 LogM) was 0.09. For the same compound, the IC50 (hNaV1.6 N1466K) was 39 nM, the “h1.6 -N1466K 145756, Mean” value (hNaV1.6 N1466K; -5 LogM) was 0.92 and the “h1.6 -N1466K 145756, Mean” value (hNaV1.6 N1466K; -5.47716 LogM) was 0.94. For the same compound, the “h1.6 -N1466K 145756, Mean” value (hNaV1.6 N1466K; -5.95429 LogM) was 0.81, the “h1.6 -N1466K 145756, Mean” value (hNaV1.6 N1466K; -6.4318 LogM) was 0.73 and the “h1.6 -N1466K 145756, Mean” value (hNaV1.6 N1466K; -6.91009 LogM) was 0.69. For the same compound, the “h1.6 -N1466K 145756, Mean” value (hNaV1.6 N1466K; -7.38722 LogM) was 0.47, the “h1.6 -N1466K 145756, Mean” value (hNaV1.6 N1466K; -7.85387 LogM) was 0.32 and the “h1.6 -N1466K 145756, Mean” value (hNaV1.6 N1466K; -8.33 LogM) was 0.15. The IC50 (hNaV1.4) was greater than 30 µM, the inhibition at 30 µM (hNaV1.4; read-out: inhibition at the highest concentration tested) was less than 50% and the “mNaV1.6 current (352)/(Vehicle)” value (mNaV1.6; -5 Log M) was 0.92. The “mNaV1.6 current (352)/(Vehicle)” value (mNaV1.6; -5.47716 Log M) was 0.9, the “mNaV1.6 current (352)/(Vehicle)” value (mNaV1.6; -5.95429 Log M) was 0.84 and the “mNaV1.6 current (352)/(Vehicle)” value (mNaV1.6; -6.91009 Log M) was 0.63. The “mNaV1.6 current (352)/(Vehicle)” value (mNaV1.6; -7.38722 Log M) was 0.48, the “mNaV1.6 current (352)/(Vehicle)” value (mNaV1.6; -7.85387 Log M) was 0.27 and the “mNaV1.6 current (352)/(Vehicle)” value (mNaV1.6; -8.30103 Log M) was 0.12. For the same compound, the IC50 (mNaV1.6; Vh -45 mV) was 58 nM, the half-life of elimination [1] was “approximately 8.5 hr” and the “effect on action-potential firing, pyramidal neurons” value ([2]; 0.25 µM NBI-921352) was “decreased the maximum firing rate; also recorded: reduced action-potential spiking”. For the same compound, the “WT Cortical pyramidal neurons APs/1s” value ([2]; 200 pA current injected) was 0 APs/1s and 12 APs/1s and 13 APs/1s, the “WT Cortical pyramidal neurons APs/1s” value ([2]; current injected 0 pA) was 0 APs/1s and the “WT Cortical pyramidal neurons APs/1s” value ([2]; current injected 20 pA) was 0 APs/1s. The “WT Cortical pyramidal neurons APs/1s” value ([2]; current injected 40 pA) was 0 APs/1s, the “WT Cortical pyramidal neurons APs/1s” value ([2]; current injected 60 pA, row) was 0 APs/1s and 1 APs/1s and 2 APs/1s and the “WT Cortical pyramidal neurons APs/1s” value ([2]; current injected 80 pA, row) was 0 APs/1s and 4 APs/1s and 6 APs/1s. The “WT Cortical pyramidal neurons APs/1s” value ([2]; current injected 100 pA, row) was 0 APs/1s and 6 APs/1s and 8 APs/1s, the “WT Cortical pyramidal neurons APs/1s” value ([2]; current injected 120 pA, row) was 0 APs/1s and 7 APs/1s and 9 APs/1s and the “WT Cortical pyramidal neurons APs/1s” value ([2]; current injected 140 pA, row) was 0 APs/1s and 8 APs/1s and 10 APs/1s. For the same compound, the “WT Cortical pyramidal neurons APs/1s” value ([2]; current injected 160 pA, row) was 0 APs/1s and 9 APs/1s and 12 APs/1s, the “WT Cortical pyramidal neurons APs/1s” value ([2]; current injected 180 pA, row) was 0 APs/1s and 11 APs/1s (2×) and the “WT Cortical pyramidal neurons APs/1s” value ([2]; current injected 200 pA, row) was 0 APs/1s and 12 APs/1s and 13 APs/1s. For the same compound, the “WT Cortical pyramidal neurons APs/1s” value ([2]; current injected 220 pA, row) was 1 APs/1s and 13 APs/1s and 14 APs/1s, the “WT Cortical pyramidal neurons APs/1s” value ([2]; current injected 240 pA, row) was 3 APs/1s and 14 APs/1s and 15 APs/1s and the “WT Cortical pyramidal neurons APs/1s” value ([2]; current injected 260 pA, row) was 4 APs/1s and 15 APs/1s and 13 APs/1s. For the same compound, the “WT Cortical pyramidal neurons APs/1s” value ([2]; current injected 280 pA, row) was 4 APs/1s and 15 APs/1s and 13 APs/1s, the “WT Cortical pyramidal neurons APs/1s” value ([2]; current injected 300 pA, row) was 4 APs/1s and 17 APs/1s and 13 APs/1s and the “WT Cortical pyramidal neurons APs/1s” value ([2]; current injected 320 pA, row) was 5 APs/1s and 18 APs/1s and 13 APs/1s. The “WT Cortical pyramidal neurons APs/1s” value ([2]; current injected 340 pA, row) was 5 APs/1s and 19 APs/1s and 12 APs/1s, the “WT Cortical pyramidal neurons APs/1s” value ([2]; current injected 360 pA, row) was 6 APs/1s and 20 APs/1s and 12 APs/1s and the “WT Cortical pyramidal neurons APs/1s” value ([2]; current injected 380 pA, row) was 7 APs/1s (2×) and 21 APs/1s. For the same compound, the “WT Cortical pyramidal neurons APs/1s” value ([2]; current injected 400 pA, row) was 8 APs/1s and 22 APs/1s and 13 APs/1s, the “WT Cortical pyramidal neurons APs/1s” value ([2]; current injected 420 pA, row) was 7 APs/1s and 22 APs/1s and 5 APs/1s and the “WT Cortical pyramidal neurons APs/1s” value ([2]; current injected 440 pA, row) was 7 APs/1s and 23 APs/1s and 4 APs/1s. The “WT Cortical pyramidal neurons APs/1s” value ([2]; current injected -20 pA) was 0 APs/1s, the “Cumulative number of action potentials fired by each cell on increasing current injections” value ([2]; up to current injected 0 pA) was 0 and the “Cumulative number of action potentials fired by each cell on increasing current injections” value ([2]; up to current injected 20 pA) was 0. For the same compound, the “Cumulative number of action potentials fired by each cell on increasing current injections” value ([2]; up to current injected 40 pA) was 0, the “Cumulative number of action potentials fired by each cell on increasing current injections” value ([2]; up to current injected -20 pA) was 0 and the inhibition at 30 µM (hNaV1.5; 30 µM, NaV1.5, read-out: inhibition at the highest concentration tested) was less than 50%. For the same compound, the “hNaV1.5 current (352)/(Vehicle), mean” value (hNaV1.5; -4.52288 Log M) was 0.24, the “hNaV1.5 current (352)/(Vehicle), mean” value (hNaV1.5; -5 Log M) was 0.1 and the “hNaV1.5 current (352)/(Vehicle), mean” value (hNaV1.5; -5.47716 Log M) was 0.02. The “hNaV1.5 current (352)/(Vehicle), mean” value (hNaV1.5; -5.95429 Log M) was 0.05, the “hNaV1.5 current (352)/(Vehicle), mean” value (hNaV1.5; -6.91009 Log M) was 0.04 and the “hNaV1.5 current (352)/(Vehicle), mean” value (hNaV1.5; -7.38722 Log M) was -0.02. The “hNaV1.5 current (352)/(Vehicle), mean” value (hNaV1.5; -7.85387 Log M) was 0.03.
